Measurements published in the NIST ThermoML archive (doi:10.1021/je0496140).

Tests used:
[1] = xn = mol fraction of the nth substance listed; settings: 101.33 kPa, Liquid
[2] = 101.33 kPa, Liquid

CCCCCl [1-chlorobutane] + CCCCO
[1]
Settings	mass density [kg/m3]	viscosity [mPa·s]
288.15 K, x2 = 0.062	886.96	–
288.15 K, x2 = 0.0949	–	0.509
288.15 K, x2 = 0.1027	883.98	–
288.15 K, x2 = 0.1383	881.38	–
288.15 K, x2 = 0.1964	–	0.57
288.15 K, x2 = 0.2032	876.67	–
288.15 K, x2 = 0.2597	872.57	–
288.15 K, x2 = 0.2859	870.67	–
288.15 K, x2 = 0.2961	–	0.655
288.15 K, x2 = 0.3764	864.06	–
288.15 K, x2 = 0.3949	–	0.774
288.15 K, x2 = 0.3967	862.58	–
288.15 K, x2 = 0.4541	858.3	–
288.15 K, x2 = 0.4822	856.17	–
288.15 K, x2 = 0.4941	–	0.94
288.15 K, x2 = 0.5076	854.25	–
288.15 K, x2 = 0.5466	851.25	–
288.15 K, x2 = 0.5818	848.53	–
288.15 K, x2 = 0.5915	–	1.175
288.15 K, x2 = 0.6332	844.49	–
288.15 K, x2 = 0.6747	841.19	–
288.15 K, x2 = 0.6954	–	1.503
288.15 K, x2 = 0.7342	836.4	–
288.15 K, x2 = 0.7698	833.49	–
288.15 K, x2 = 0.794	–	1.934
288.15 K, x2 = 0.8509	826.62	–
288.15 K, x2 = 0.892	–	2.529
288.15 K, x2 = 0.9022	822.13	–
288.15 K, x2 = 0.9582	817.04	–
298.15 K, x2 = 0.0949	–	0.452
298.15 K, x2 = 0.1964	–	0.504
298.15 K, x2 = 0.2961	–	0.57
298.15 K, x2 = 0.3949	–	0.661
298.15 K, x2 = 0.4941	–	0.788
298.15 K, x2 = 0.5915	–	0.955
298.15 K, x2 = 0.6954	–	1.204
298.15 K, x2 = 0.794	–	1.525
298.15 K, x2 = 0.892	–	1.955
308.15 K, x2 = 0.0949	–	0.407
308.15 K, x2 = 0.1056	861.88	–
308.15 K, x2 = 0.1964	–	0.448
308.15 K, x2 = 0.1979	855.62	–
308.15 K, x2 = 0.2842	849.82	–
308.15 K, x2 = 0.2961	–	0.501
308.15 K, x2 = 0.3908	842.67	–
308.15 K, x2 = 0.3949	–	0.576
308.15 K, x2 = 0.4941	–	0.67
308.15 K, x2 = 0.4964	835.5	–
308.15 K, x2 = 0.5913	828.95	–
308.15 K, x2 = 0.5915	–	0.797
308.15 K, x2 = 0.6908	821.85	–
308.15 K, x2 = 0.6954	–	0.984
308.15 K, x2 = 0.7917	814.48	–
308.15 K, x2 = 0.794	–	1.226
308.15 K, x2 = 0.892	–	1.547
308.15 K, x2 = 0.9003	806.19	–
318.15 K, x2 = 0.0612	853.78	–
318.15 K, x2 = 0.0913	851.66	–
318.15 K, x2 = 0.0949	–	0.367
318.15 K, x2 = 0.1849	845.48	–
318.15 K, x2 = 0.1964	–	0.401
318.15 K, x2 = 0.2759	839.66	–
318.15 K, x2 = 0.2961	–	0.444
318.15 K, x2 = 0.3836	832.82	–
318.15 K, x2 = 0.3949	–	0.503
318.15 K, x2 = 0.4858	826.26	–
318.15 K, x2 = 0.4941	–	0.577
318.15 K, x2 = 0.5859	819.71	–
318.15 K, x2 = 0.5915	–	0.674
318.15 K, x2 = 0.6868	812.99	–
318.15 K, x2 = 0.6954	–	0.816
318.15 K, x2 = 0.7868	806.09	–
318.15 K, x2 = 0.794	–	0.993
318.15 K, x2 = 0.8906	798.56	–
318.15 K, x2 = 0.892	–	1.238

CC(C)CO [2-methyl-1-propanol]
[2]
Settings	mass density [kg/m3]	viscosity [mPa·s]
288.15 K	805.47	4.805
298.15 K	797.37	3.435
308.15 K	790.1	2.508
318.15 K	781.99	1.87

CC(C)(C)O [2-methylpropan-2-ol]
[2]
Settings	mass density [kg/m3]	viscosity [mPa·s]
298.15 K	779.96	4.433
303.15 K	775.3	3.355
308.15 K	770.19	2.611
313.15 K	764.83	2.074
318.15 K	759.52	1.685

CCCCO [butan-1-ol]
[2]
Settings	mass density [kg/m3]	viscosity [mPa·s]
288.15 K	813.42	3.346
298.15 K	805.4	2.56
308.15 K	798.14	1.991
318.15 K	790.19	1.569

CCC(C)O (centres undefined) [butan-2-ol]
[2]
Settings	mass density [kg/m3]	viscosity [mPa·s]
288.15 K	810.72	4.509
298.15 K	801.82	3.035
308.15 K	794.07	2.111
318.15 K	785.15	1.523
